The values below come from patent publication US11524009B2, “Combination comprising at least one spliceosome modulator and at least one inhibitor chosen from BCL2 inhibitors, BCL2/BCLxL inhibitors, and BCLxL inhibitors and methods of use” (Eisai R&D Management Co., Ltd., priority 2017, dated 2022).

Type in all cases: cell-based
The subject of assay [1] is MCL1 gene splicing in NCIH1568 cells. The experiment in a line: Quantitative RT-PCR detection of MCL1 mRNAs (splicing modulation). As to conditions: six-hour treatment, qRT-PCR. Here is the method:
RNA lysates were isolated from cells treated with compounds in 96 well plates and reverse transcribed using TaqMan Gene Expression Cells-to-CT Kit (Thermo Fisher Scientific) according to manufacturer's instruction. Quantitative PCR was performed using TaqMan Gene Expression Master Mix (Thermo Fisher Scientific) with MCL1 transcript probes (Integrated DNA technologies FAM-ZEN/IBFQ) duplexed with 18S rRNA VIC-PL (Thermo Fisher Scientific assay ID Hs99999901_s1) and quantified using the ΔΔCt method.
(In general: In qPCR the cycle at which signal appears reflects the starting amount.)

The subject of assay [2] is MCL1 protein in NCIH1568 cells. The experiment in a line: Western Blot Analysis of MCL1L, truncated MCL1 and cleaved PARP. The conditions noted are these: 6 hours. The method, then: Cell lines were lysed in RIPA buffer (Boston BioProducts) plus protease-inhibitor cocktail (Mini-complete, EDTA-free, Roche) and phosphatase inhibitor PhosSTOP (Roche). Lysates were diluted in RIPA buffer with 4×LDS Sample Buffer (Nupage, Thermo Fisher Scientific) and 10× Reducing Reagent (Nupage, Thermo Fisher Scientific) and boiled for 5 minutes. Twenty five micrograms of protein were loaded per well in 4-12% Bis-Tris SDS Page gels (Novex, Thermo Fisher Scientific). Gels were transferred to nitrocellulose membranes using iBlot system (Thermo Fisher Scientific). Membranes were blocked in blocking buffer (1× Tris-Buffered Saline+0.1% Tween-20 (Boston Bioproducts)+5% Non-Fat Dry Milk (Bio-Rad)) for 1 hour and then cut. Each section was probed separately with antibodies to each of the following proteins in blocking buffer: MCL1 (Cell Signaling Technologies 5453) (D35A5) rabbit monoclonal diluted 1:500, BCL-xL (Cell Signaling Technologies 2764) (54H6) rabbit monoclonal diluted 1:500, Cleaved Parp (Cell Signaling Technologies 5625) (D64P10) rabbit monoclonal diluted 1:500, and GAPDH (Sigma G8795) mouse monoclonal at 100 ng/mL. Blots were incubated with primary antibodies dilutions shaking at 4° C. overnight. Western blots were then blotted either with Odyssey Licor or HRP secondary antibodies. Blots were then washed four times using wash buffer (1× Tris-Buffered Saline+0.1% Tween-20). Blots imaged using Licor were probed shaking at room temperature for 1 hour with Licor IR-labeled secondary antibodies, IRDye® 800CW Goat anti-Rabbit IgG (Odyssey 925-32211) and IRDye® 680LT Goat anti-Mouse IgG (Odyssey 925-68020) diluted 1:10,000 in blocking buffer. Blots were then washed three times with wash buffer. IR-dye detection was performed using the Licor imaging system (Odyssey) according to manufacturer's instruction. Blots imaged using HRP were probed shaking at room temperature for 1 hour with Anti-mouse IgG, HRP-linked Antibody (Cell Signaling Technologies 7076) and Anti-rabbit IgG, HRP-linked Antibody (Cell Signaling Technologies 7074) diluted 1:5000 in blocking buffer. […]
(In general: Immunoblotting shows a protein as a band on a membrane.)

The next assay has as its system NCIH1568 cells. The experiment in a line: Growth inhibition, MCL1 rescue by MCL1L cDNA overexpression. The conditions noted are these: NCIH1568 (MCL1-dependent), Dox-induced MCL1L cDNA vs empty vector. From the text:
(§1) BCL-xL shRNA 1 ([…]) (Wei G, et al., 2012, Cancer Cell 21(4): 547-562) was cloned into Agel and EcoRl of the Tet inducible lentiviral pLKO-iKD-H1 puro vector (Wiederschain D, et al., 2009, Cell Cycle 8(3): 498-504). MCL1 shRNA 48 ([…]) (Wei G, et al., 2012, Cancer Cell 21(4): 547-56) was cloned into Agel and EcoRl of the Tet inducible lentiviral pLKO-iKD-U6 puro vector. MCL1-L pENTR-D-TOPO was Gateway cloned (LR clonase, Thermo Fisher Scientific) into pINDUCER20 (Meerbrey K L, et al., 2011, Proc Natl Acad Sci USA. 108(9):3665-3670). Lentiviruses were prepared in LentiX-293T cells. […]
(§2) For compound dose response experiments, cells were plated in 96 or 384 well plates at 1,000 cells in 50 μl per well. […] At t=0, untreated cells were lysed with CellTiter-Glo and measured on an Envision plate reader. At t=72 (72 hours after compound addition), cells treated with compound were lysed with CellTiter-Glo and analyzed on Envision. The luminescence value from each treatment sample was normalized to the average value of the respective DMSO control. […]

A further assay has as its system A549 cells. The experiment in a line: Growth inhibition with or without Dox-induced knockdown of BCLxL.
From the text: as §1, §2

Consider `CC[C@H](O)[C@@H](C)[C@H]1O[C@@H]1C[C@@](C)(O)/C=C/C=C(\C)[C@H]1OC(=O)C[C@H](O)CC[C@@](C)(O)[C@@H](OC(=O)N2CCN(C3CCCCCC3)CC2)/C=C/[C@@H]1C` [E7107, (8E,12E,14E)-7-((4-Cycloheptylpiperazin-1-yl)carbonyl)oxy-3,6,16,21-tetrahydroxy-6,10,12,16,20-pentamethyl-18,19-epoxytricosa-8,12,14-trien-11-olide], for which, in assay [1], the “MCL1L mRNA” value is “robust reduction”, the “MCL1S mRNA” value was “transient expression” and the “MCL1 pre-mRNA with intron-retention” value was “continuous induction”. Besides, in assay [2], the “cleaved PARP protein (indicator of apoptosis)” value is “induction”, the “full length MCL1 protein” value is on record as “dose-dependent downregulation” and the “truncated short-form MCL1 protein product” value is “increased in a dose-dependent manner”. In addition, the “cell death with cDNA overexpression of MCL1L” value in the assay on NCIH1568 cells is listed as “rescued the cell death”. In addition, in the assay with A549 cells (A549 (MCL1-independent), without BCLxL knockdown), the growth inhibition entry was “cytostatic inhibition”. Moreover, the growth inhibition result in the assay with A549 cells (A549, inducible knockdown of BCLxL (Dox)) is “clear cell death”.
